Measurements: PMC7695847, “The structural basis of promiscuity in small multidrug resistance transporters” (Nature Communications, 2020)

Experiments:
Gdx-Clo = system: T1, Gdx-Clo; assay: […]-Gdm+ uptake and SSM electrophysiology, proteoliposomes; format: biochemical, Clostridiales bacterium oral taxon 876; conditions: 20 µM 14C-Gdm+ or 1 mM (SSM); pH 7.5; labelled compound
T1 construct: gene HMPREF1982_00479; full-length; C-terminal His6 tag with LysC site, tag cleaved by LysC; expressed in E. coli C41(DE3); antiparallel homodimer

EmrE [1] = molecular target: T2, EmrE (Escherichia coli, UniProt P23895); assay: SSM electrophysiology, proteoliposomes; format: biochemical; conditions: 1 mM; pH 7.5; reference compound for normalisation
T2 construct: full-length; N-terminal His6 tag with thrombin site; expressed in E. coli; homodimer; reconstituted in proteoliposomes

EmrE [2] = molecular target: T2, EmrE; assay: […]-methyl viologen uptake into proteoliposomes; format: biochemical; conditions: 7 µM 14C-methyl viologen; pH 7.5; labelled compound

T2 sequence (P23895 whole entry): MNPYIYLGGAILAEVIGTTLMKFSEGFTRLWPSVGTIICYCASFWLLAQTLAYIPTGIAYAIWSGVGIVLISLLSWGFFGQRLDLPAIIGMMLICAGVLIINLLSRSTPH
T1 sequence (U2EQ00 entry or part of it): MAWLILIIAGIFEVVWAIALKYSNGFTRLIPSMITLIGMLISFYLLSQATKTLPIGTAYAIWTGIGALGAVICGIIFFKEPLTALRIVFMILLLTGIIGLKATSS

`N=C(N)N` [Gdm^+] was tested, and the “14C-Gdm+ uptake and SSM electrophysiology, proteoliposomes” value (Gdx-Clo) was “Gdx-Clo transports Gdm^+, but not methyl viologen”.

In the case of `N=C(N)Nc1ccccc1` [phenylGdm^+], the “SSM electrophysiology, proteoliposomes” value (EmrE [1]) is reported as “methyl-, ethyl-, and phenylGdm^+ evoked increasingly larger currents”.

With `C[n+]1ccc(-c2cc[n+](C)cc2)cc1` [methyl viologen] the “14C-methyl viologen uptake into proteoliposomes” value (EmrE [2]) was “EmrE transports methyl viologen, but not Gdm^+”.
